We go through six compounds from patent US10729713B2, “Pharmaceutical composition for treating hepatitis, liver fibrosis, and liver cancer” (GUANGDONG PROVINCIAL HOSPITAL OF CHINESE MEDICINE, priority 2016, dated 2020).

A short description of series [1]: In vivo distribution of Entecavir in mice. To be noted: Entecavir 0.1 mg/kg, 5 consecutive days, combination with high dosage of polysaccharides (as Example 5), n = 6. As to the method: The bupleurum root polysaccharides enhance the distribution of Entecavir in liver, and reduce its distribution in other tissues.
The drug of Example 5 is used.
20 male mice are fasted for one night, but free accessed to water before the experiment. The animals are divided into three groups according to body weight, including a treatment group with Entecavir, and treatment groups with bupleurum root polysaccharides combined with Entecavir. The animals are administered for 5 consecutive days. The dosage of Entecavir is 0.1 mg/kg, and the corresponding dosage of bupleurum root polysaccharides in Example 5 is a high dosage, one-half of which is a low dosage. The animals are sacrificed after the last administration and the blood, heart, liver, spleen, lung, kidney, intestine, stomach, bone marrow, and brain are taken. 100 μL of plasma is directly precipitated by adding 800 μL of acetonitrile, and the supernatant is frozen and centrifuged. 500 μL of the supernatant is blow dried with nitrogen, and 100 μL of the mobile phase is added for reconstitution, and injected for analysis. 0.1 g of the tissue is added with 1 mL of water and homogenized. The homogenate is treated following the treatment method for the plasma.
Effect of bupleurum root polysaccharides on in vivo distribution of Entecavir (ng/mL)

Series [2] is described as follows: Tissue distribution of oxymatrine (OM) and its metabolite matrine (M) in rats, LC-MS. To be noted: po, OM 54 mg/kg single administration, sampled at 20, 60, 240 min, n = 6. In kind it is in vivo, rat. The protocol:
The pharmaceutical composition of the present invention enhances the distribution of oxymatrine (OM) in the rat liver. 36 rats are acclimated for 7 days, and randomized into a treatment group with oxymatrine (OM) alone, and a treatment group with a combined drug of the present invention (drug in Example 1). Wherein, the dosage of oxymatrine (OM) is 54 mg/kg, and the bupleurum root polysaccharides are used at a corresponding dosage in Example 1. After a single administration, blood is sampled from the abdominal aorta respectively at 20 min, 60 min, and 240 min. The rat is sacrificed, from which the liver, spleen, lung, kidney, and heart are removed. […] The concentrations of oxymatrine (OM) and its metabolite (M) are determined by LC-MS, the content in the tissue and the area under the curve are calculated.

Another series has as its system HBV. Briefly: Inhibition of HBV replication in HepG2.215 cells (HBsAg/HBeAg by ELISA, HBV gene by fluorescent quantitative PCR). In kind it is cell-based, Hepatitis B Virus. To be noted: for Expression of HBV gene / HBeAg / HBsAg: normalized, 100% for control group; for HBeAg / HBsAg: HepG2.215 supernatant, 48 h. The protocol: The drug of Example 4 is used. The concentration of Adefovir Dipivoxil was 1 μmol, and the vinegar-baked bupleurum root polysaccharides are at a medium dosage in corresponding dosage, one-half of the medium dosage is a low dosage, and twice of the medium dosage is a high dosage.
The experiment is started with HepG2.215 cells that were grown to 80% confluence.
The cells were assigned to 5 groups, comprising a blank control group, a treatment group with Adefovir Dipivoxil, a treatment group with Adefovir Dipivoxil in combination with high dosage of vinegar-baked bupleurum root polysaccharides, a treatment group with Adefovir Dipivoxil in combination with medium dosage of vinegar-baked bupleurum root polysaccharides, and a treatment group with Adefovir Dipivoxil in combination with low dosage of vinegar-baked bupleurum root polysaccharides. Culturing for 48 h after administration, the supernatant is collected, the expression of the HBV gene is determined by fluorescent quantitative PCR, and the HBsAg and HBeAg concentrations are determined by ELISA.
The experiment is started with HepG2.215 cells that are grown to 80% confluence. The cells were assigned to 5 groups, comprising a blank control group, a treatment group with Tenofovir, a treatment group with Tenofovir in combination with high, medium, and low dosage of vinegar-baked bupleurum root polysaccharides. The concentration of Tenofovir is 0.8 μmol, the medium dosage of vinegar-baked bupleurum root polysaccharides is a corresponding dosage in Example 7, one-half of which is the low dosage, and twice of which is the high dosage. Culturing for 48 h after administration, the supernatant is collected, the expression of the HBV gene is determined by fluorescent quantitative PCR, and the HBsAg and HBeAg concentrations are determined by ELISA.
A general note: In an ELISA, binding on a coated surface is turned into a signal by an enzyme label.

Series [3] relates to duck hepatitis B virus (DHBV). Nature of the series: Effect against duck hepatitis B virus in DHBV-infected ducklings. The series is classed as in vivo. The following applies: DHBV-infected ducks; Telbivudine 80 mg·kg^−1 alone, gastric perfusion twice a day, 10 days; 100% for control group.
A short description of series [4]: Plasma and tissue distribution of Lamivudine in rats, liquid chromatography. To be noted: Lamivudine 15 mg/kg, n = 6. The series is classed as in vivo, rat. As to the method: The pharmaceutical composition of the present invention enhances the Lamivudine level in the rat liver. Grouping of the test animals and administration are the same as the Example 1 (except that the drug used is the same as Example 3). The dosage of Lamivudine is 15 mg/kg, and the bupleurum root polysaccharides are at a corresponding dosage. The Lamivudine content was determined by liquid chromatography. 0.1 mL of plasma is added with 10 μL of 0.2 mol ammonium acetate, and then with 1 mL of acetonitrile, vortexed, and centrifuged. The supernatant is collected and injected for determination. 0.1 g of the tissue sample is added with 1 mL of physiological saline, homogenized, and treated following the same method as for the plasma sample. The Lamivudine contents in the plasma and tissue sample are determined.

For series [5] the following is noted: drug modified with monophosphorylation, compared with the control group; cited from earlier work.
Setting [6] is: HepG2.215, 48 h, text summary of Table 4.
Where [7] appears, read: Adefovir Dipivoxil 1 μmol alone.

`C=C1[C@H](CO)[C@@H](O)C[C@@H]1n1cnc2c(=O)[nH]c(N)nc21` [Entecavir]: the “Entecavir concentration, Marrow” value in series [1] (mouse bone marrow) is given as 18.9 ng/L. Besides, the “Entecavir concentration, Heart” value in series [1] (mouse heart) worked out at 26.14 ng/L. Moreover, the “Entecavir concentration, Instine” value in series [1] (mouse intestine) is recorded as 24.3 ng/L. Moreover, in series [1] (mouse kidney), the “Entecavir concentration, Kidney” value is on record as 27.5 ng/L. In series [1] (mouse liver), the “Entecavir concentration, Liver” value is recorded as 26.8 ng/L. Further, in series [1] (mouse lung), the “Entecavir concentration, Lung” value worked out at 26.3 ng/L. Besides, the “Entecavir concentration, Plasma” value in series [1] (mouse plasma) amounted to 30.6 ng/L. The “Entecavir concentration, Spleen” value in series [1] (mouse spleen) is 28.4 ng/L. The “Entecavir concentration, Stomach” value in series [1] (mouse stomach) is reported as 25.6 ng/L.
By AUC is commonly meant concentration integrated over time. Turning to `O=C1CCC[C@@H]2[C@H]3CCC[N+]4([O-])CCC[C@@H](CN12)[C@@H]34` (some centres unmarked) [OM, oxymatrine], the AUC in series [2] (rat heart, read-out: AUC of oxymatrine, Heart) was 125 ng·h/mL; in series [2] (rat kidney, read-out: AUC of oxymatrine, Kidney) it was 69.7 ng·h/mL; in series [2] (rat liver, read-out: AUC of oxymatrine, Liver) it was 125 ng·h/mL; in series [2] (rat lung, read-out: AUC of oxymatrine, Lung), 366 ng·h/mL; in series [2] (rat plasma, read-out: AUC of oxymatrine, Plasma), 520 ng·h/mL; in series [2] (rat spleen, read-out: AUC of oxymatrine, Spleen), 64.9 ng·h/mL.
Consider `C[C@H](Cn1cnc2c(N)ncnc21)OCP(=O)(O)O` [Tenofovir], for which the “Expression of HBV gene” value in the series with HBV (HepG2.215, 48 h, Tenofovir 0.8 μmol alone) is reported as 45.2 ± 5.3%. In the series on HBV (Tenofovir 0.8 μmol alone), the HBeAg was found to be 39.8 ± 2.4% and the HBsAg turned out to be 33.2 ± 1.2%.
As to `Cc1cn([C@@H]2C[C@@H](O)[C@H](CO)O2)c(=O)[nH]c1=O` [Telbivudine], in series [3], the “Expression of HBV gene” value is on record as 50.5 ± 5.3%, the HBeAg came out at 37.2 ± 3.4% and the HBsAg is on record as 30 ± 1.3%.
For the compound `CC(C)(C)C(=O)OCOP(=O)(COCCn1cnc2c(N)ncnc21)OCOC(=O)C(C)(C)C` [Adefovir Dipivoxil], the “Expression of HBV gene” value in the series with HBV (HepG2.215, 48 h, Adefovir Dipivoxil 1 μmol alone) was determined as 50 ± 5.3%. In the series on HBV (setting [6]), the “inhibition rate for gene expression” value came to 50% and the “inhibition rate on the replication of HBV (HBsAg, HBeAg)” value is reported as 60-65%. In addition, in the series on HBV (setting [7]), the HBeAg is reported as 40 ± 3.4% and the HBsAg worked out at 35 ± 1.2%.
In the case of `Nc1ccn([C@@H]2CS[C@H](CO)O2)c(=O)n1` [Lamivudine], the area under the curve (AUC) turned out to be 26.8 ng·h/mL in series [4] (rat heart, read-out: AUC of Lamivudine, Heart); 24.3 ng·h/mL in series [4] (rat kidney, read-out: AUC of Lamivudine, Kidney); 27.3 ng·h/mL in series [4] (rat liver, read-out: AUC of Lamivudine, Liver); 23.1 ng·h/mL in series [4] (rat lung, read-out: AUC of Lamivudine, Lung); 25.4 ng·h/mL in series [4] (rat plasma, read-out: AUC of Lamivudine, Plasma); 30.2 ng·h/mL in series [4] (rat spleen, read-out: AUC of Lamivudine, Spleen). Further, in series [4] (rat stomach, read-out: AUC of Lamivudine, Stomach), the AUC came to 28.8 ng·h/mL. The “increase of AUC” value in series [5] is 11.2 times. Besides, the “increase of the concentration of Lamivudine in the liver” value in series [5] is on record as 7.7 times.
